ChEMBL document CHEMBL1128330, “Anti-human immunodeficiency virus and anti-hepatitis-B virus activities and toxicities of the enantiomers of 2'-deoxy-3'-oxa-4'-thiocytidine and their 5-fluoro analogues in vitro” (J Med Chem, 1995)

Columns and labels:
Details in all cases: Homo sapiens
CCRF-CEM [1] = assay: Inhibitory concentration against HIV-1 infected CEM cell lines; assay type: functional, cell-based
CCRF-CEM [2] = assay: Cytotoxic concentration against HIV-1 infected CEM cell lines; assay type: functional
[3] = Drug concentration which inhibits 50% of growth of cord blood mononuclear cells (CBMCs); assay type: functional
H9 [4] = assay: Cytotoxic concentration against HIV-1 infected H9 cell lines; assay type: functional
H9 [5] = assay: Inhibitory concentration against HIV-1 infected H9 cell lines; assay type: functional, cell-based
Jurkat [6] = assay: Cytotoxic concentration against HIV-1 infected Jurkat cell lines; assay type: functional
MT4 [7] = assay: Cytotoxic concentration against HIV-1 infected MT-4 cell lines; assay type: functional
U-937 [8] = assay: Cytotoxic concentration against HIV-1 infected U937 cell lines; assay type: functional
U-937 [9] = assay: Inhibitory concentration against HIV-1 infected U937 cell lines; assay type: functional, cell-based
Jurkat [10] = assay: Inhibitory concentration against HIV-1 infected Jurkat cell lines; assay type: functional, cell-based
MT4 [11] = assay: Inhibitory concentration against HIV-1 infected MT-4 cell lines; assay type: functional, cell-based

IC50 (CCRF-CEM [1]): 0.01 µM | IC50 (H9 [5]): 0.07 µM | IC50 (U-937 [9]): 0.04 µM | IC50 (Jurkat [10]): 0.01 µM
Structure (SMILES): Cc1cn([C@H]2C[C@H](N=[N+]=[N-])[C@@H](CO)O2)c(=O)[nH]c1=O [ZIDOVUDINE]
CC50 (CCRF-CEM [2]): 500 µM | CC50 [3]: 45 µM | CC50 (H9 [4]): 200 µM | CC50 (Jurkat [6]): > 500 µM | CC50 (MT4 [7]): 110 µM | CC50 (U-937 [8]): 110 µM | IC50 (MT4 [11]): 0.005 µM
